This is an account of results in patent US20250250310A1, “COMBINATION THERAPY WITH ADP-RIBOSE BINDING PEPTIDE AND ADP-RIBOSE FOR PREVENTION OR TREATMENT OF CANCER” (PEARLSINMIRES CO., LTD., priority 2023, published 2025).

For the data set, the system named is MDA-MB-231 cancer cells. In words: MDA-MB-231 cell viability (MTT), sustained release derivative alone or in combination. The data set is classed as cell-based. The note with it: single treatment (derivative 5 μM, ADPR 2 mM, NAD^+ 2 mM, anti-cancer drugs), 96 hours. The protocol:
Each of 2.5×10^3 human-derived pancreatic cancer (Aspc-1), kidney cancer (Caki-1), breast cancer (HCC1937), liver cancer (HepG2), lung cancer (H1975), colon cancer (HCT116), ovarian cancer (OVCAR-3), brain cancer (U87) cells were cultured in a 96-well plate under 37° C. and 5% CO2 conditions for 24 hours, and then treated with the sustained release derivative alone. In addition, MDA-MB-231 cancer cells were divided into the following groups and treated with each formulation at GI20 concentration alone or in combination. • 1) Untreated group • 2) Group treated with sustained-release derivative alone at 5 μM concentration • 3) Group treated with ADPR at 2 mM concentration alone • 4) Group treated with NAD^+ at 2 mM concentration alone • 5) Groups treated with various anti-cancer drugs alone (Cisplatin at 2 μM, Docetaxel at 1 μM, Dichloroacetate at 3 mM, Doxorubicin at 2 μM, Sorafenib at 2 μM, Osimertinib at 10 nM, Trastuzumab at 0.2 μM, Bevacizumab at 0.2 nM, Tamoxifen at 0.2 μM, or Olaparib at 1 μM) • 6) Group treated in combination with ADPR at 2 mM concentration and a sustained-release derivative at 5 μM concentration • 7) Group treated in combination with ADPR at 2 mM concentration, NAD^+ at 2 mM concentration, and a sustained-release derivative at 5 μM concentration • 8) Group treated in combination with ADPR at 2 mM concentration, a sustained-release derivative at 5 μM concentration, and various anti-cancer drugs (same concentration as Group 5 above).
The cells were then cultured for another 96 hours at 37° C. and 5% CO2, and 10 μl of 3-(4,5-dimethylthiazol-2-yl)-2,5-diphenyltetrazolium bromide reagent was added to each well and reacted for 1 hour. The reagent was removed at the end of the reaction, 200 μl of dimethyl sulfoxide was then added to each well, and the absorbance was measured to determine the cell viability.

As usually defined, the cell viability is the share of living cells, or the viability signal relative to a control. Turning to `Nc1ncnc2c1ncn2[C@@H]1O[C@H](COP(=O)(O)OP(=O)(O)OC[C@H]2O[C@@H](O)C(O)C2O)C(O)C1O` (stereo partly shown) [ADP-ribose], the cell viability came to 80%.
